{"source": "patent US8153694B2", "about": "“Cyclopropanecarboxylic acid compound” (Takeda Pharmaceutical Company Limited, priority 2005, dated 2012)", "molecular_target": "T1, human GPR40 (Homo sapiens, UniProt O14842)", "T1 construct": "expressed in transfected cells; host or cells: CHO cell line stably expressing human GPR40", "T1 sequence (O14842 whole entry)": "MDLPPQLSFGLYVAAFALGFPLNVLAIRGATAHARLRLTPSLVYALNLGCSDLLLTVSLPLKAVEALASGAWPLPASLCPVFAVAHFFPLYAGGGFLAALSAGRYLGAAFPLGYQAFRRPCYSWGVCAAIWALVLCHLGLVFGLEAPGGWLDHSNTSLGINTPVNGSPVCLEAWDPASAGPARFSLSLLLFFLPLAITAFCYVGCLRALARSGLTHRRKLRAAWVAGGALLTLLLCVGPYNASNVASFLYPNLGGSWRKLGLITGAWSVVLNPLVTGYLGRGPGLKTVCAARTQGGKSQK", "assay": "Receptor function modulating action (agonist action) against human-derived GPR40: intracellular calcium change by FLIPR in CHO cells stably expressing human GPR40", "assay_type": "cell-based", "method": "Receptor Function Modulating Action (Agonist Action) against Human-Derived GPR40 For determination of agonist activity, CHO cell line that stably expressed human GPR40 was used. […] The cells cultured to nearly confluent were rinsed with PBS (Invitrogen) on the previous day of the assay, peeled off with EDTA ([…], Wako Junyaku) and recovered by centrifugation. The number of the obtained cells was counted, and the cells were diluted such that 3×10^5 cells were contained per 1 mL of the medium, dispensed to a 96 well black clear bottom plate (coaster) by 100 μL per well and cultured overnight in a CO2 incubator. Various test compounds were added to the CHO cells thus prepared, and the changes in the intracellular calcium concentration were measured using FLIPR (Molecular Device). The below-mentioned pre-treatment was applied to measure changes in the intracellular calcium concentration by FLIPR. […] A fluorescence dye solution was prepared by adding 500 μM probenecid dissolved in 1N NaOH to the assay buffer to a final concentration of […], and adding the solution (10 mL) to 1 vial of component A (Molecular Device). One day before the assay, the medium of CHO cells re-plated on a 96 well black clear bottom plate was removed, and the cells were washed with D-PBS(−). […] Then, the fluorescence dye solution was dispensed by 100 μL per well, and the cells were cultured in a CO2 incubator for 1 hr to allow uptake of the fluorescence dye by the cells. During this period, the test compound was diluted to a given concentration with the assay buffer, and dispensed to a polypropylene 96-well plate (sample plate) by 100 μL. The cell plate and the sample plate were simultaneously set on FLIPR. After the above-mentioned pre-treatment, variation in the intracellular calcium concentration after addition of various test compounds (50 μL) was measured by FLIPR.", "key": {"[1]": {"details": "agonist activity of each compound at 1 μM, relative to the activity of 10 μM γ-linolenic acid as 100%, CHO cell line stably expressing human GPR40"}}, "note": "Counter-ions that a name gives are not always drawn."}
{"compound": "CCOCCOc1cc(C)c(-c2cccc(COc3ccc(C4CC4C(=O)O)cc3)c2)c(C)c1", "note": "(centres unmarked) [Example 3, 2-(4-{[4′-(2-ethoxyethoxy)-2′,6′-dimethylbiphenyl-3-yl]methoxy}phenyl)cyclopropanecarboxylic acid calcium salt]", "values": [{"measurement": "Relative activity value", "setting": "agonist activity of each compound at 1 μM, relative to the activity of 10 μM γ-linolenic acid as 100%, CHO cell line stably expressing human GPR40, calcium salt", "value": 103, "unit": "%"}]}
{"compound": "Cc1cc(OCC2(C)COC2)cc(C)c1-c1cccc(COc2ccc(C3CC3C(=O)O)cc2)c1", "note": "(centres unmarked) [Example 7, 2-[4-({2′,6′-dimethyl-4′-[(3-methyloxetan-3-yl)methoxy]biphenyl-3-yl}methoxy)phenyl]cyclopropanecarboxylic acid]", "values": [{"measurement": "Relative activity value", "setting": "[1]", "value": 119, "unit": "%"}]}
{"compound": "CCCCC/C=C\\C/C=C\\C/C=C\\CCCCC(=O)O", "note": "[γ-linolenic acid, reference compound]", "values": [{"measurement": "Relative activity value", "setting": "reference: activity of 10 μM γ-linolenic acid (GPR40 agonist) set as 100%, CHO cell line stably expressing human GPR40", "value": 100, "unit": "%"}]}
{"compound": "Cc1cc(OC2CCS(=O)(=O)CC2)cc(C)c1-c1cccc(COc2ccc(C3CC3C(=O)O)cc2)c1", "note": "(centres unmarked) [Example 5, 2-[4-({4′-[(1,1-dioxidotetrahydro-2H-thiopyran-4-yl)oxy]-2′,6′-dimethylbiphenyl-3-yl}methoxy)phenyl]cyclopropanecarboxylic acid]", "values": [{"measurement": "Relative activity value", "setting": "[1]", "value": 108, "unit": "%"}]}
{"compound": "CCOCCOc1cc(C)c(-c2cccc(COc3ccc(C4CC4C(=O)O)cc3)c2)c(C)c1", "note": "(centres unmarked) [Example 2, 2-(4-{[4′-(2-ethoxyethoxy)-2′,6′-dimethylbiphenyl-3-yl]methoxy}phenyl)cyclopropanecarboxylic acid]", "values": [{"measurement": "Relative activity value", "setting": "[1]", "value": 111, "unit": "%"}]}
{"compound": "CC(C)CCN(Cc1ccc(COc2ccc(C3CC3C(=O)O)cc2)cc1)c1nc(-c2ccc(C(F)(F)F)cc2)cs1", "note": "(centres unmarked) [Example 9]", "values": [{"measurement": "Relative activity value", "setting": "[1]", "value": 99, "unit": "%"}]}
{"compound": "O=C(O)C1CC1c1ccc(OCc2cccc(Oc3ccccc3)c2)cc1", "note": "(centres unmarked) [Example 13, 2-{4-[(3-phenoxybenzyl)oxy]phenyl)cyclopropanecarboxylic acid]", "values": [{"measurement": "Relative activity value", "setting": "[1]", "value": 109, "unit": "%"}]}
{"compound": "CCCN(Cc1ccc(COc2ccc(C3CC3C(=O)O)cc2)cc1)c1nc(-c2ccc(C(F)(F)F)cc2)cs1", "note": "(centres unmarked) [Example 11, 2-[4-({4-[(propyl{4-[4-(trifluoromethyl)phenyl]-1,3-thiazol^-2-yl}amino)methyl]benzyl}oxy)phenyl]cyclopropanecarboxylic acid]", "values": [{"measurement": "Relative activity value", "setting": "[1]", "value": 114, "unit": "%"}]}
